# Results from US7964701B2, “Alpha-fetoprotein peptides” (Albany Medical College, priority 2006, dated 2011).
# Where a SMILES comes first, the peptide text is derived from it. Where no end group is shown, it is not given here. [ ]: non-standard residue; d: D form. Hyp = O=C(O)[C@@H]1C[C@@H](O)CN1
# Key:
# [1] = test system: E2-stimulated growth of mouse uterus; assay: Immature mouse uterine growth assay; format: in vivo; conditions: for Inhibition ± S.E, % Immature mouse uterine growth Intraperitoneal / antiestrogenic activity (inhibition of E2-stimulated uterine growth), in words: 1 μg/mouse intraperitoneally; for Activity % ± SD (percent growth inhibition of uterus): dose 1 ug/animal; for antiestrogenic activity (inhibition of E2-stimulated uterine growth), in words: Table 3 discussion; for dose-response profile, inhibition of E2-stimulated uterine growth: FIG. 5
# From the text: The anti-breast cancer activity of the linear and cyclic 8-mer and 9-mer AFP-derived peptides is well-documented using the immature mouse uterine growth assay and the human breast cancer xenograft assay; there is a strong correlation between the results of these two assays. To evaluate peptide-induced inhibition by the peptide of the present invention of estrogen-stimulated proliferation of normal tissue, the immature mouse uterine growth assay was utilized. Briefly, 13-15 day-old Swiss/Webster female mice, 6-8 g in body weight, were distributed into treatment groups of 5 mice per group so that each group contained animals of the same range of body weight. The peptide of the invention was injected i.p., s.c., or p.o. into the mice. One hour later, estradiol (E2) or vehicle control for E2 was injected i.p. Twenty-two hours after the second injection, uteri were harvested, trimmed free of mesenteries, and immediately weighed. The uterine weights were normalized to mouse body weights to compensate for differences in body weight among litters of the same age. Experiments employed a minimum of five mice per group and the mean normalized uterine weight±SE for each group was calculated. Percent growth inhibition in a test group was calculated from normalized uterine wet weights as described below.
# Differences between groups were evaluated, employing the nonparametric Wicoxon ranks sum test. In all cases, growth inhibitions that were greater than 25% were significant at P≦0.05.
# In other experiments, peptide analogs comprising the sequences TOVN SEQ ID NO.: 3) and TPVN (SEQ ID NO.: 2) were assessed for their ability to inhibit E2-stimulated growth of mouse uterus after intraperitoneal and oral administration.
# The ability to inhibit E2-stimulated growth of normal mouse uterus was used as a screening assay for biological activity of AFPep analogs. In general, inhibitory activity≧20% is considered to be biologically significant. Each analog's inhibitory effect on E2-stimulated growth was compared to AFPep (a positive control) and to PGVGQ (SEQ ID NO.: 44)(a negative control). PGVGQ (SEQ ID NO.: 44) (amino acids 478-482 of AFP) is a portion of the primary structure of AFP near to the anti-cancer active site of AFP and is comprised of amino acids (P, V, and G) that are important components of AFPep. A scrambled analog of AFPep was not used because some scrambled peptides retain low biological activity (data not shown). In Table 3, bold letters denote the sequences containing a putative Type I beta-turn, which was postulated to be necessary for antiestrogenic activity.
# [2] = test system: T47D human breast cancer cells; conditions: for concentration up to which E2-stimulated T47D growth was inhibited in a concentration dependent manner / activity maintained / dose response profile, inhibition of E2-stimulated T47D cell growth: FIG. 6; for inhibition of E2-stimulated T47D cell growth, in words: Table 3 discussion, 1 μM
# Description: T47D cells were obtained from ATCC® (Rockville, Md.) and grown in culture according recommended protocols. Cells were treated with 1 nM estrogen or 100 nM TOVNO (SEQ ID NO.: 7)/1 nM estrogen. Control cells received 10% estrogen-free media. Cells were treated for seven days.
# A number of AFPep analogs were assessed for in vitro anticancer activity.
# [3] = test system: MCF-7 human breast cancer cells; assay: MCF-7 human tumor xenograft assay in SCID mice; format: in vivo, mouse; conditions: for change in mean tumor volume: FIG. 1
# Description: The peptides of the invention were evaluated for their ability to inhibit tumor growth in a human tumor xenograft assay. Briefly, MCF-7 human breast cancer cells were obtained from ATCC® (Rockville, Md.) and were grown in DMEM supplemented with 5% FCS, 1% non-essential amino acids, 10 ng/ml insulin, 2 mM L-glutamine, 100 units/ml penicillin, and 100 μg/ml streptomycin. MCF-7 cells from culture were solidified into a fibrin clot. The tumor-containing clots were cut into pieces about 1.5 mm in diameter and implanted under the kidney capsule of severe combined immunodeficient (ICR-SCID) mice (Taconic Farms, Germantown, N.Y.) as described in Bennett et al. (Clin. Cancer Res. 1998; 4:2877-84).
# Estrogen supplementation of mice was required for the growth of MCF-7 tumors. Supplementation was accomplished by s.c. implantation of a Silastic tubing capsule containing solid E2 (2 mm in length) inserted on the day of tumor implantation. Tumor size was evaluated during survival laparotomy using a dissecting microscope at the time of tumor implantation and at days 15 and 30 after tumor implantation.
# The T47D human breast cancer cell line is responsive in culture, but it was a less reliable tool when grown as a xenograft tumor in immune deficient mice, having a take-rate of <60% in these mice. However, the MCF-7 human breast cancer cell line has a tumor take-rate of 100% in immune deficient mice and is completely dependent on E2 for growth in these mice (2). Consequently, MCF-7 xenografts were used as a model for ER+human breast cancer to evaluate, in vivo, the effectiveness of TOVNO (SEQ ID NO.: 7) and TOVNOGNEK (SEQ ID NO.: 34) as anticancer agents.
# [4] = once a day 10 μg per mouse i.p., FIG. 7b
# [5] = once a day 100 μg by oral gavage, FIG. 7a
molecule,measurement,setting,value
TPVNP,"Inhibition ± S.E, % Immature mouse uterine growth Intraperitoneal",[1],27 ± 1 %
same,Activity % ± SD (percent growth inhibition of uterus),[1],26%
MTOVNOG (MT[Hyp]VN[Hyp]G; not fully specified (C-terminus)),"Inhibition ± S.E, % Immature mouse uterine growth Intraperitoneal",[1],28 ± 2 %
same,"antiestrogenic activity (inhibition of E2-stimulated uterine growth), in words",[1],significantly inhibited E2-stimulated uterine growth
CC(C)[C@H](NC(=O)[C@@H]1C[C@@H](O)CN1C(=O)[C@@H](N)[C@@H](C)O)C(=O)N[C@@H](CC(N)=O)C(=O)N1C[C@H](O)C[C@H]1C(N)=O [TOVNO] (H-T[Hyp]VN[Hyp]-NH2; N-terminus assumed),"dose-response profile, inhibition of E2-stimulated uterine growth",[1],biphasic dose-response curve
same,dose up to which E2-stimulated uterine growth was inhibited in a dose-dependent manner,[1]; FIG. 5c,up to 1 μg/mouse
same,"antiestrogenic activity (inhibition of E2-stimulated uterine growth), in words",[1],significantly inhibited E2-stimulated uterine growth
same,estrogen-stimulated T47D cell proliferation,"[2]; 100 nM peptide/1 nM estrogen, seven days, FIG. 3",T47D cell proliferation was reduced
same,concentration up to which E2-stimulated T47D growth was inhibited in a concentration dependent manner / activity maintained,[2],up to 10^−7 M
same,"dose response profile, inhibition of E2-stimulated T47D cell growth",[2],lost activity with increasing concentration thereafter
same,"inhibition of E2-stimulated T47D cell growth, in words",[2],significantly inhibited
same,change in mean tumor volume,[3]; 100 μg/day p.o.,significantly decreased the increase in tumor volume
same,change in mean tumor volume,[3]; intraperitoneal 1 μg/day,effective in reducing the increase in mean tumor volume
same,change in mean tumor volume,[3]; intraperitoneal 10 μg/day,effective in reducing the increase in mean tumor volume
same,growth of ER+ human MCF-7 breast cancer tumors,[3]; [4],significantly inhibited
same,growth of ER+ human MCF-7 breast cancer tumors,[3]; [5],significantly inhibited
TPVN,"Inhibition ± S.E, % Immature mouse uterine growth Intraperitoneal",[1],29 ± 1 %
same,Activity % ± SD (percent growth inhibition of uterus),[1],27%
PVNP,"Inhibition ± S.E, % Immature mouse uterine growth Intraperitoneal",[1],6 ± 3%
same,Activity % ± SD (percent growth inhibition of uterus),[1],10%
CC(C)[C@H](NC(=O)[C@@H]1C[C@@H](O)CN1C(=O)[C@@H](NC(=O)[C@H](CCCCN)NC(=O)[C@@H](N)CCC(=O)O)[C@@H](C)O)C(N)=O [EKTOV] (H-EKT[Hyp]V-NH2; N-terminus assumed),"antiestrogenic activity (inhibition of E2-stimulated uterine growth), in words",[1],little or no antiestrogenic activity
CC(C)[C@H](NC(=O)[C@@H]1C[C@@H](O)CN1C(=O)[C@@H](N)[C@@H](C)O)C(=O)N[C@@H](CC(N)=O)C(=O)N1C[C@H](O)C[C@H]1C(=O)NCC(=O)N[C@@H](CC(N)=O)C(=O)N[C@@H](CCC(=O)O)C(=O)N[C@@H](CCCCN)C(N)=O [TOVNOGNEK] (H-T[Hyp]VN[Hyp]GNEK-NH2; N-terminus and C-terminus assumed),"dose-response profile, inhibition of E2-stimulated uterine growth",[1],maintained its inhibitory effect at high doses
same,"antiestrogenic activity (inhibition of E2-stimulated uterine growth), in words",[1],significantly inhibited E2-stimulated uterine growth
same,concentration up to which E2-stimulated T47D growth was inhibited in a concentration dependent manner / activity maintained,[2],≤ 10^−4 M
same,"dose response profile, inhibition of E2-stimulated T47D cell growth",[2],maintained its activity with increasing concentrations
same,"inhibition of E2-stimulated T47D cell growth, in words",[2],comparable to AFPep
same,growth of ER+ human MCF-7 breast cancer tumors,[3]; [4],significantly inhibited
same,growth of ER+ human MCF-7 breast cancer tumors,[3]; [5],significantly inhibited
EKTPV [5-mer outside the pharmacophoric region],"Inhibition ± S.E, % Immature mouse uterine growth Intraperitoneal",[1],0%
same,"antiestrogenic activity (inhibition of E2-stimulated uterine growth), in words",[1],little or no antiestrogenic activity
CC(C)[C@H](NC(=O)[C@@H]1C[C@@H](O)CN1C(=O)[C@@H](NC(=O)[C@H](CCCCN)NC(=O)[C@@H](N)CCC(=O)O)[C@@H](C)O)C(=O)N[C@@H](CC(N)=O)C(=O)N1C[C@H](O)C[C@H]1C(=O)NCC(=O)N[C@@H](CC(N)=O)C(N)=O [EKTOVNOGN] (H-EKT[Hyp]VN[Hyp]GN-NH2; N-terminus and C-terminus assumed),"dose-response profile, inhibition of E2-stimulated uterine growth",[1],biphasic dose-response curve
same,"antiestrogenic activity (inhibition of E2-stimulated uterine growth), in words",[1],active at this dose
same,"dose response profile, inhibition of E2-stimulated T47D cell growth",[2],biphasic dose response curve
CC(C)[C@H](NC(=O)[C@@H]1C[C@@H](O)CN1C(=O)[C@@H](N)[C@@H](C)O)C(=O)N[C@@H](CC(N)=O)C(N)=O [TOVN] (H-T[Hyp]VN-NH2; N-terminus assumed),"antiestrogenic activity (inhibition of E2-stimulated uterine growth), in words",[1],weak antiestrogenic activity
same,"inhibition of E2-stimulated T47D cell growth, in words",[2],very weak inhibitory activity
CC(C)[C@H](NC(=O)[C@@H]1C[C@@H](O)CN1C(=O)[C@@H](NC(=O)[C@@H](N)CCCCN)[C@@H](C)O)C(=O)N[C@@H](CC(N)=O)C(=O)N1C[C@H](O)C[C@H]1C(=O)NCC(N)=O [KTOVNOG] (H-KT[Hyp]VN[Hyp]G-NH2; N-terminus and C-terminus assumed),"antiestrogenic activity (inhibition of E2-stimulated uterine growth), in words",[1],significantly inhibited E2-stimulated uterine growth
CC(C)[C@H](NC(=O)[C@@H]1C[C@@H](O)CN1)C(=O)N[C@@H](CC(N)=O)C(=O)N1C[C@H](O)C[C@H]1C(=O)NCC(N)=O [OVNOG] (H-[Hyp]VN[Hyp]G-NH2; N-terminus assumed),"antiestrogenic activity (inhibition of E2-stimulated uterine growth), in words",[1],weakly inhibited E2-stimulated uterine growth
KTPVNPG,"Inhibition ± S.E, % Immature mouse uterine growth Intraperitoneal",[1],34 ± 2 %
same,"antiestrogenic activity (inhibition of E2-stimulated uterine growth), in words",[1],significantly inhibited E2-stimulated uterine growth
EMTOV (EMT[Hyp]V; not fully specified (C-terminus)) [5-mer outside the pharmacophoric region],"Inhibition ± S.E, % Immature mouse uterine growth Intraperitoneal",[1],1 ± 1%
same,"antiestrogenic activity (inhibition of E2-stimulated uterine growth), in words",[1],little or no antiestrogenic activity
CC(C)[C@H](NC(=O)[C@@H]1C[C@@H](O)CN1)C(=O)N[C@@H](CC(N)=O)C(=O)N1C[C@H](O)C[C@H]1C(N)=O [OVNO] (H-[Hyp]VN[Hyp]-NH2; N-terminus assumed),"antiestrogenic activity (inhibition of E2-stimulated uterine growth), in words",[1],lacked antiestrogenic activity
same,"inhibition of E2-stimulated T47D cell growth, in words",[2],lacked inhibitory activity
EMTPV [5-mer outside the pharmacophoric region],"Inhibition ± S.E, % Immature mouse uterine growth Intraperitoneal",[1],5 ± 4%
same,"antiestrogenic activity (inhibition of E2-stimulated uterine growth), in words",[1],little or no antiestrogenic activity
